Data: patent publication US10765114B2, “4-amino-6-(pyridyl and 2-substitutedphenyl)-picolinates and 6-amino-2-(pyridyl and 2-substitutedphenyl)-pyrimidine-4-carboxylates and their use as herbicides” (Dow AgroSciences LLC, priority 2013, dated 2020)

Columns and labels:
[1] = test system: VERPE (Persian speedwell); assay: Post-Emergent Test III (Wheat and Barley); assay type: in vivo, Veronica persica; settings: for Visual Growth Reduction (%) 21 Days After Application, VERPE: VERPE bird's-eye speedwell (Veronica persica), post-emergent
Experimental: (§1) Seeds of the desired test plant species were planted in Sun Gro MetroMix® 306 planting mixture, which typically has a pH of 6.0 to 6.8 and an organic matter content of about 30 percent, in plastic pots with a surface area of 103.2 square centimeters (cm^2). When required to ensure good germination and healthy plants, a fungicide treatment and/or other chemical or physical treatment was applied. The plants were grown for 7-36 days in a greenhouse with an approximate 14 h photoperiod which was maintained at about 18° C. during the day and 17° C. during the night. Nutrients and water were added on a regular basis and supplemental lighting was provided with overhead metal halide 1000-Watt lamps as necessary. The plants were employed for testing when they reached the second or third true leaf stage.
(§2) A weighed amount, determined by the highest rate to be tested, of each test compound was placed in a 25 mL glass vial and was dissolved in 4 mL of a 97:3 v/v mixture of acetone and DMSO to obtain concentrated stock solutions. […] The concentrated stock solutions obtained were diluted with 20 mL of an aqueous mixture containing acetone, water, isopropyl alcohol, DMSO, Agri-Dex crop oil concentrate, and X-77 surfactant in a 48:39:10:1.5:1.5:0.02 v/v ratio to obtain spray solutions containing the highest application rates. Additional application rates were obtained by serial dilution of 12 mL of the high rate solution into a solution containing 2 mL of 97:3 v/v mixture of acetone and DMSO and 10 mL of an aqueous mixture containing acetone, water, isopropyl alcohol, DMSO, Agri-Dex crop oil concentrate, and X-77 surfactant in a 48:39:10:1.5:1.5:0.02 v/v ratio to obtain ½×, ¼×, ⅛× and 1/16× rates of the high rate. Compound requirements are based upon a 12 mL application volume at a rate of 187 liters per hectare (L/ha). Formulated compounds were applied to the plant material with an overhead Mandel track sprayer equipped with 8002E nozzles calibrated to deliver 187 L/ha over an application area of 0.503 square meters at a spray height of 18 inches (43 cm) above the average plant canopy height. Control plants were sprayed in the same manner with the solvent blank.
(§3) The treated plants and control plants were placed in a greenhouse as described above and watered by subirrigation to prevent wash-off of the test compounds. After 21 dAYS, the condition of the test plants as compared with that of the untreated plants was determined visually and scored on a scale of 0 to 100 percent where 0 corresponds to no injury and 100 corresponds to complete kill and presented as indicated in Table A.
(§4) By applying the well-accepted probit analysis as described by J. Berkson in Journal of the American Statistical Society, 48, 565 (1953) and by D. Finney in “Probit Analysis” Cambridge University Press (1952), herbicidal injury of a specific compound at various rates can be used to calculate GR10, GR20, GR50, GR80 and GR90 values, which are defined as growth reduction factors that correspond to the effective dose of herbicide required to provide plant growth reduction (GR) of 10 percent, 20 percent, 50 percent, 80 percent and 90 percent, respectively. Probit analysis was applied to data collected from multiple dose rates of individual compounds utilizing the procedures explained in the following examples. The analysis of those dose rates is captured in the following tables.

[2] = test system: test plant species in Wheat and Barley; assay: Post-Emergent Test III (Wheat and Barley), further species of Table 9; assay type: in vivo; settings: for Visual Growth Reduction (%) 21 Days After Application, CHEAL: CHEAL lambsquarters (Chenopodium album); for Visual Growth Reduction (%) 21 Days After Application, CHEAL / Visual Growth Reduction (%) 21 Days After Application, GALAP / Visual Growth Reduction (%) 21 Days After Application, STEME / Visual Growth Reduction (%) 21 Days After Application, VIOTR: post-emergent; for Visual Growth Reduction (%) 21 Days After Application, GALAP: GALAP cleavers (Galium aparine); for Visual Growth Reduction (%) 21 Days After Application, STEME: STEME common chickweed (Stellaria media); for Visual Growth Reduction (%) 21 Days After Application, VIOTR: VIOTR wild pansy (Viola tricolor)
Experimental: as §1, §2, §3, §4

[3] = test system: LAMPU (purple deadnettle); assay: Post-Emergent Test III (Wheat and Barley); assay type: in vivo, Lamium purpureum; settings: for Visual Growth Reduction (%) 21 Days After Application, LAMPU: LAMPU purple deadnettle (Lamium purpureum), post-emergent
Experimental: as §1, §2, §3, §4

Cc1c(-c2cc(N)c(Cl)c(C(=O)O)n2)ccc(Cl)c1Cl [Compound 28]
Visual Growth Reduction (%) 21 Days After Application, VERPE ([1]; 17.5 g ai/ha): G (0-29)
Visual Growth Reduction (%) 21 Days After Application, VERPE ([1]; 35 g ai/ha): F (30-44)
Visual Growth Reduction (%) 21 Days After Application, VERPE ([1]; 70 g ai/ha): E (45-59)
GR50, VERPE ([1]; VERPE, growth reduction of 50%, probit analysis, 21 days): 63 g ai/ha
GR80, VERPE ([1]; VERPE, growth reduction of 80%, probit analysis, 21 days): 111 g ai/ha
GR90, VERPE ([1]; VERPE, growth reduction of 90%, probit analysis, 21 days): >140 g ai/ha
Visual Growth Reduction (%) 21 Days After Application, CHEAL ([2]; 17.5 g ai/ha): C (75-84)
Visual Growth Reduction (%) 21 Days After Application, CHEAL ([2]; 35 g ai/ha): C (75-84)
Visual Growth Reduction (%) 21 Days After Application, CHEAL ([2]; 70 g ai/ha): B (85-94)
GR50, CHEAL ([2]; CHEAL, growth reduction of 50%, probit analysis, 21 days): 1 g ai/ha
GR80, CHEAL ([2]; CHEAL, growth reduction of 80%, probit analysis, 21 days): 30 g ai/ha
GR90, CHEAL ([2]; CHEAL, growth reduction of 90%, probit analysis, 21 days): >140 g ai/ha
Visual Growth Reduction (%) 21 Days After Application, GALAP ([2]; 17.5 g ai/ha): F (30-44)
Visual Growth Reduction (%) 21 Days After Application, GALAP ([2]; 35 g ai/ha): E (45-59)
Visual Growth Reduction (%) 21 Days After Application, GALAP ([2]; 70 g ai/ha): D (60-74)
GR50, GALAP ([2]; GALAP, growth reduction of 50%, probit analysis, 21 days): 29 g ai/ha
GR80, GALAP ([2]; GALAP, growth reduction of 80%, probit analysis, 21 days): 120 g ai/ha
GR90, GALAP ([2]; GALAP, growth reduction of 90%, probit analysis, 21 days): >140 g ai/ha
Visual Growth Reduction (%) 21 Days After Application, STEME ([2]; 17.5 g ai/ha): D (60-74)
Visual Growth Reduction (%) 21 Days After Application, STEME ([2]; 35 g ai/ha): C (75-84)
Visual Growth Reduction (%) 21 Days After Application, STEME ([2]; 70 g ai/ha): B (85-94)
GR50, STEME ([2]; STEME, growth reduction of 50%, probit analysis, 21 days): 11 g ai/ha
GR80, STEME ([2]; STEME, growth reduction of 80%, probit analysis, 21 days): 31 g ai/ha
GR90, STEME ([2]; STEME, growth reduction of 90%, probit analysis, 21 days): 53 g ai/ha
Visual Growth Reduction (%) 21 Days After Application, VIOTR ([2]; 17.5 g ai/ha): G (0-29)
Visual Growth Reduction (%) 21 Days After Application, VIOTR ([2]; 35 g ai/ha): G (0-29)
Visual Growth Reduction (%) 21 Days After Application, VIOTR ([2]; 70 g ai/ha): G (0-29)
GR50, VIOTR ([2]; VIOTR, growth reduction of 50%, probit analysis, 21 days): >140 g ai/ha
GR80, VIOTR ([2]; VIOTR, growth reduction of 80%, probit analysis, 21 days): >140 g ai/ha
GR90, VIOTR ([2]; VIOTR, growth reduction of 90%, probit analysis, 21 days): >140 g ai/ha
Visual Growth Reduction (%) 21 Days After Application, LAMPU ([3]; 17.5 g ai/ha): A (95-100)
Visual Growth Reduction (%) 21 Days After Application, LAMPU ([3]; 35 g ai/ha): A (95-100)
Visual Growth Reduction (%) 21 Days After Application, LAMPU ([3]; 70 g ai/ha): A (95-100)
GR50, LAMPU ([3]; LAMPU, growth reduction of 50%, probit analysis, 21 days): 1 g ai/ha
GR80, LAMPU ([3]; LAMPU, growth reduction of 80%, probit analysis, 21 days): 1 g ai/ha
GR90, LAMPU ([3]; LAMPU, growth reduction of 90%, probit analysis, 21 days): 1 g ai/ha
